In US9234885B2 (priority 2011, dated 2016):
Entries after “also recorded” stand apart in the source; their conditions may differ.

Tests used:
rVSV-GP-EboV [1] = format: cell-based, Ebola virus
rVSV-GP-EboV [2] = format: cell-based, Ebola virus; remark: listed apart in the source
VSV [3] = format: cell-based, vesicular stomatitis virus
[4] = test system: intracellular cholesterol; format: cell-based, grivet monkey
EBOV-Zaire 1995 = format: cell-based, Ebola virus
MARV-Ci67 = format: cell-based, Marburg virus
VSV [5] = format: cell-based, vesicular stomatitis virus; remark: listed apart in the source
[6] = test system: human peripheral blood monocyte-derived dendritic cells and umbilical-vein endothelial cells (HUVEC)

Row | Molecule | VSV M staining pattern after rVSV-GP-EboV (diffuse = fusion, punctate = block) (rVSV-GP-EboV [1]) | time after addition to cells until viral infection is inhibited (rVSV-GP-EboV [2]) | viral infection mediated by EboV GP (rVSV-GP-EboV [2]) | viral infection by VSV (VSV [3]) | time until significant intracellular accumulation of cholesterol is observed [4] | infection by authentic EboV, percentage of infected cells by immunostaining (EBOV-Zaire 1995) | viral yield, authentic EboV (EBOV-Zaire 1995) | infection by authentic MarV, percentage of infected cells by immunostaining (MARV-Ci67) | viral yield, authentic MarV (MARV-Ci67) | VSV M staining pattern after VSV (diffuse = fusion, punctate = block) (VSV [5]) | cell number or morphology [6]
1 | bafilomycin A1 [bafA1] | discrete punctuate of M staining |  |  |  |  |  |  |  |  |  | 
2 | CCN(CC)CCO[C@H]1CC[C@@]2(C)C(=CC[C@@H]3[C@@H]2CC[C@]2(C)C(=O)CC[C@@H]32)C1 [U18666A, 3-β-[2-(diethylamino)ethoxy]androst-5-en-17-one] | only punctate M staining | < 10 min | potently inhibited | but not VSV | > 4 h | greatly reduced; also recorded: blocks | Stark reductions | greatly reduced; also recorded: blocks | Stark reductions | Diffuse M staining | without affecting
3 | ammonium chloride [NH4Cl] | discrete punctuate of M staining |  |  |  |  |  |  |  |  |  | 
4 | CN(C)CCCN1c2ccccc2CCc2ccccc21 [imipramine] |  |  | potently inhibited | but not VSV |  | blocks | Stark reductions | blocks | Stark reductions |  | 
